Assay results reported in ChEMBL document CHEMBL5233266, “β-Carboline as a Privileged Scaffold for Multitarget Strategies in Alzheimer's Disease Therapy” (J Med Chem, 2021).
Several values for one entry are separate records, joined by “and”; a condition that tells them apart may be missing. Equal entries are not always repeated.

Columns and labels:
[1] = target: cGMP-specific 3',5'-cyclic phosphodiesterase (Homo sapiens, UniProt O76074); experiment: Inhibition of PDE5 (unknown origin)
[2] = target: Acetylcholinesterase (Homo sapiens, UniProt P22303); experiment: Inhibition of AChE (unknown origin)
[3] = target: T1, Gamma-aminobutyric acid receptor subunit alpha-3 (Homo sapiens, UniProt P34903); experiment: Binding affinity to human recombinant GABAA alpha3 receptor assessed as inhibition constant incubated for 1 hrs by liquid scintillation counting analysis
T1 sequence (P34903 whole entry): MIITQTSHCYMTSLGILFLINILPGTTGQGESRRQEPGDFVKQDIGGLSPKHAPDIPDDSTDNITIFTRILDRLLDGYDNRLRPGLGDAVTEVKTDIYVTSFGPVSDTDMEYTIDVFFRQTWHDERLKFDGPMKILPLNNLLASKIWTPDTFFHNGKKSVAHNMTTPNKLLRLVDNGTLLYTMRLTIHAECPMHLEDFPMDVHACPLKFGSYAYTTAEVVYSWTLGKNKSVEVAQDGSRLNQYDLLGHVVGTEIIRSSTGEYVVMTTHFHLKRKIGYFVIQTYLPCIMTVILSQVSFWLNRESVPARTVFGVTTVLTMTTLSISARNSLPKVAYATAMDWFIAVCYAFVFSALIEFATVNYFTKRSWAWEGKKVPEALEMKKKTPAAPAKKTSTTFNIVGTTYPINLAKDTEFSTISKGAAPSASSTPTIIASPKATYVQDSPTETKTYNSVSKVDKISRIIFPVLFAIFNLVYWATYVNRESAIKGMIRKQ

[4] = target: Gamma-aminobutyric acid receptor subunit alpha-6 (Homo sapiens, UniProt Q16445); experiment: Binding affinity to human recombinant GABAA alpha6 receptor assessed as inhibition constant incubated for 1 hrs by liquid scintillation counting analysis
[5] = target: T2, Gamma-aminobutyric acid receptor subunit alpha-2 (Homo sapiens, UniProt P47869); experiment: Binding affinity to human recombinant GABAA alpha2 receptor assessed as inhibition constant incubated for 1 hrs by liquid scintillation counting analysis
T2 sequence (P47869 whole entry): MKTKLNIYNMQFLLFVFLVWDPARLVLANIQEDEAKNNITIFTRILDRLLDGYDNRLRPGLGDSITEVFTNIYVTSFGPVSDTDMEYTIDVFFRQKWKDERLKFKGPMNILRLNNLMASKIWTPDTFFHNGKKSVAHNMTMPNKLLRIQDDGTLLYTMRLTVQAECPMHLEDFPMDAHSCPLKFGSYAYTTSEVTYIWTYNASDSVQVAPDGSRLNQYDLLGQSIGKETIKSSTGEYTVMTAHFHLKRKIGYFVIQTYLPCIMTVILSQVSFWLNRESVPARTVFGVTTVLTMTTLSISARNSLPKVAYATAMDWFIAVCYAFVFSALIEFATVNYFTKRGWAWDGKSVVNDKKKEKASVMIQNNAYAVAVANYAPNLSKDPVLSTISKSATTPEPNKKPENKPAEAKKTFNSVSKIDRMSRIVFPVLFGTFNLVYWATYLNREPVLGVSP

[6] = target: T3, Gamma-aminobutyric acid receptor subunit alpha-5 (Homo sapiens, UniProt P31644); experiment: Binding affinity to human recombinant GABAA alpha5 receptor assessed as inhibition constant incubated for 1 hrs by liquid scintillation counting analysis
T3 sequence (P31644 whole entry): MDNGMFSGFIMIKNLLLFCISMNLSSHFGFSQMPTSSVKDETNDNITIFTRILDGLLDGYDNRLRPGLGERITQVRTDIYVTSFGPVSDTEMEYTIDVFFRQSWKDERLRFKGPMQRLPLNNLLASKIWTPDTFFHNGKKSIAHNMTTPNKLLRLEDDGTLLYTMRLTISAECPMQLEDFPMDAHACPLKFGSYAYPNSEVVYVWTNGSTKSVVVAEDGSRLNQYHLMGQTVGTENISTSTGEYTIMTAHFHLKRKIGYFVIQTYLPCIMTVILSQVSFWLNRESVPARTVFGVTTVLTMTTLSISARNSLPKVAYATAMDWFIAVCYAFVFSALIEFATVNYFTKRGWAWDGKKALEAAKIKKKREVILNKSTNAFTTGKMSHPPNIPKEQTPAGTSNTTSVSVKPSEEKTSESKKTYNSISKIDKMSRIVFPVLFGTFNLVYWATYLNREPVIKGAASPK

[7] = target: GABA-A receptor; anion channel; experiment: Displacement of [3H]flunitrazepam from GABAA (unknown origin ) receptor by radioligand binding assay; assay type: protein-complex assay, Homo sapiens
[8] = target: T4, Gamma-aminobutyric acid receptor subunit alpha-1 (Homo sapiens, UniProt P14867); experiment: Binding affinity to human recombinant GABAA alpha1 receptor assessed as inhibition constant incubated for 1 hrs by liquid scintillation counting analysis
T4 sequence (P14867 whole entry): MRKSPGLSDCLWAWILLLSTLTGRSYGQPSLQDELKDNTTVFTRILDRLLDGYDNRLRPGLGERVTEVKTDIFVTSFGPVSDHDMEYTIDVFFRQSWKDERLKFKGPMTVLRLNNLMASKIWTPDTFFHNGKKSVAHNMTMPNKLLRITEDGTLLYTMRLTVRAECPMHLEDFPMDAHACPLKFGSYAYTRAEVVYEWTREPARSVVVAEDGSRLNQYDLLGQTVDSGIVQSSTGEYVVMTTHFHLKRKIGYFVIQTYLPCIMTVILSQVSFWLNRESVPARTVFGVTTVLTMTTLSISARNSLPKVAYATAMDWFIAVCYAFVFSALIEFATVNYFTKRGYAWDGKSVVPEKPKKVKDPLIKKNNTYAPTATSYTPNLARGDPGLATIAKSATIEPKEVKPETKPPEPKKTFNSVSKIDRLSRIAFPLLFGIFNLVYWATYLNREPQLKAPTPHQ

[9] = target: Cholinesterase (Homo sapiens, UniProt P06276); experiment: Inhibition of BuChE (unknown origin)
Sequence of Cholinesterase (P06276 whole entry): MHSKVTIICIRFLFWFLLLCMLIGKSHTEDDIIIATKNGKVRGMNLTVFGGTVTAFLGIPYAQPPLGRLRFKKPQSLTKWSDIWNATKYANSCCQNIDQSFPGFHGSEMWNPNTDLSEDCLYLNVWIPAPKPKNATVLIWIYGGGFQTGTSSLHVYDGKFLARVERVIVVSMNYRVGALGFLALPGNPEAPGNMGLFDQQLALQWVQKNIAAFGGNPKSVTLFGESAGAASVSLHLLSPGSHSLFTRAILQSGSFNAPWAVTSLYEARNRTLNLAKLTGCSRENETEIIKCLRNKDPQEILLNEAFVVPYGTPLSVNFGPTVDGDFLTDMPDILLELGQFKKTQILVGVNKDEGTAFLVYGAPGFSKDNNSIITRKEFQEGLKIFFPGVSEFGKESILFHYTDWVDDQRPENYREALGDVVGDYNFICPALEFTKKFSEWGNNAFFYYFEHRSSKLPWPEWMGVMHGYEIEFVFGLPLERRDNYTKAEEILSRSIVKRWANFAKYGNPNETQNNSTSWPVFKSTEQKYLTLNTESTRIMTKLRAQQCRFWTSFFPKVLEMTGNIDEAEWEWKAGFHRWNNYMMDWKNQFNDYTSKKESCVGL

Sequence of Gamma-aminobutyric acid receptor subunit alpha-6 (Q16445 whole entry): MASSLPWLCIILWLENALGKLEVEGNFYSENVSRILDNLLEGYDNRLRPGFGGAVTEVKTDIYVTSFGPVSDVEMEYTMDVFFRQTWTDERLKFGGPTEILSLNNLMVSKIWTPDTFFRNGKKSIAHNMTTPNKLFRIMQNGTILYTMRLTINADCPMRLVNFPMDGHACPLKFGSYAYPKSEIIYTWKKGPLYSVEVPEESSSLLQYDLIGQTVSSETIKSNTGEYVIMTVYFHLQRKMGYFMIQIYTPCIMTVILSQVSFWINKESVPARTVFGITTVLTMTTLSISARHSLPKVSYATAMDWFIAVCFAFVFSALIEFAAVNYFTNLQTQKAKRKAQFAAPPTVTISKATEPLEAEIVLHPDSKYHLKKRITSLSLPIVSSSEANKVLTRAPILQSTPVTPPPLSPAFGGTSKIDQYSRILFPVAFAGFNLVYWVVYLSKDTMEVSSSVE
Sequence of Acetylcholinesterase (P22303 whole entry): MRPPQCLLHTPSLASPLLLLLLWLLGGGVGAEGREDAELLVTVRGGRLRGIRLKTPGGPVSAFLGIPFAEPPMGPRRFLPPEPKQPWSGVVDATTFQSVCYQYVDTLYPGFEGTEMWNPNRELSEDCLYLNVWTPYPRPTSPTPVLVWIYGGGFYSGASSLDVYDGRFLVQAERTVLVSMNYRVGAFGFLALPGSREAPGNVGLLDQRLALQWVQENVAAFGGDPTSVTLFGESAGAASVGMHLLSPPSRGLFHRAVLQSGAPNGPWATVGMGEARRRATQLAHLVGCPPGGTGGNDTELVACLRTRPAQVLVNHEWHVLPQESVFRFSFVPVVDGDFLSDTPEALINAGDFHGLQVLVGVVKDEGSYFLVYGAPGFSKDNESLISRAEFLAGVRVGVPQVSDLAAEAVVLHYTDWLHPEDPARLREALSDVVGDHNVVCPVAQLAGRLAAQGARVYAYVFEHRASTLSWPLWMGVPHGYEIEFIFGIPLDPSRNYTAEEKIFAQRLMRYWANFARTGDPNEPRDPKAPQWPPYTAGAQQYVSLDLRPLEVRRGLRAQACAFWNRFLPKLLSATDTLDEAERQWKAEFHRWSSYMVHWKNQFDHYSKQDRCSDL

Molecule `CCN1C(=O)C2Cc3c([nH]c4ccccc34)C(c3ccc(OC)cc3)N2C1=O` (centres undefined) has an IC50 [1] of 3 nM.
In the case of `CN1CCN(C(=O)c2ccc(-c3ccc(C(=O)N4CCc5c([nH]c6ccccc56)C4c4ccc5c(c4)OCO5)o3)cc2)CC1` (centres undefined), the IC50 [1] is reported as 8 nM.
`O=C1C2Cc3c([nH]c4ccccc34)[C@@H](c3ccc4c(c3)OCO4)N2C(=O)CN1CCC1CCN(Cc2ccccc2)CC1` (some centres undefined) was tested, and the IC50 [1] was 150 nM and the IC50 [2] was 36 nM.
`CCOC(=O)c1ncc2[nH]c3ccccc3c2c1COC` showed a Ki [3] of 5 nM, a Ki [4] of 1200 nM and a Ki [5] of 3 nM. For the same molecule, the Ki [6] was 10 nM, the IC50 [7] was 0.5 nM and the Ki [8] was 0.6 nM.
For `CCCCN1CC(=O)N2[C@H](c3ccc(Br)cc3)c3[nH]c4ccccc4c3C[C@H]2C1=O`, the IC50 [1] was 10 nM.
In the case of `COc1ccc(-[n+]2ccc3c4ccccc4n(C)c3c2)cc1`, the IC50 [9] is reported as 32000 nM and 116000 nM and the IC50 [2] is reported as 300 nM.
In the case of `COc1ccc(C2c3[nH]c4ccccc4c3CC3C(=O)N(C4CCCCC4)C(=O)N32)cc1` (centres undefined), the IC50 [1] is reported as 3 nM.
`c1ccc2c(c1)[nH]c1c2ncc2[nH]c3ccccc3c21` gave a Ki [3] of 1 nM, a Ki [4] greater than 1000 nM and a Ki [5] of 1 nM. For the same molecule, the Ki [6] was 40 nM and the Ki [8] was 1 nM.
`O=C(NCCCCCCNc1c2c(nc3ccccc13)CCCC2)[C@@H]1Cc2c([nH]c3ccccc23)CN1` gave an INH [9] of 22 nM and an IC50 [2] of 22 nM.
With `CCCC(=O)c1cc2c(cn1)[nH]c1ccccc12` the Ki [3] was 21 nM, the Ki [4] was greater than 3000 nM and the Ki [5] was 16 nM. The Ki [6] was 1000 nM, the IC50 [7] was 3 nM and the Ki [8] was 2 nM.
`CCOC(=O)c1ncc2[nH]c3ccc(O)cc3c2c1COC` gave a Ki [3] of 11 nM, a Ki [4] of 3000 nM and a Ki [5] of 5 nM. The Ki [6] was 19 nM, the IC50 [7] was 0.5 nM and the Ki [8] was 2 nM.
For `S=C=Nc1cc2c(cn1)[nH]c1ccccc12`, the IC50 [7] was 3 nM and the Ki [8] was 5 nM.
Molecule `CCOC(=O)c1cc2c(cn1)[nH]c1ccccc12` has a Ki [8] of 1 nM.
Work on `COc1ccc2c(c1)[nH]c1c(C(C)=O)nccc12` [ARENARINE C] yielded an IC50 [9] of 27000 nM and an IC50 [2] of 4000 nM.
With `CC(C)N1CC(=O)N2C(Cc3c([nH]c4ccccc34)C2c2ccc3c(c2)OCO3)C1=O` (centres undefined) the IC50 [1] was 3 nM.
With `Cn1ccnc1CN1CC[C@@H](N2CC(=O)N3[C@H](c4ccc5c(c4)OCO5)c4[nH]c5ccccc5c4C[C@@H]3C2=O)C1` the IC50 [1] was 0.8 nM.
`C#CCn1c2cc(OC)ccc2c2ccnc(C)c21` was tested, and the IC50 [2] was 1900 nM.
`O=C1[C@H]2Cc3c([nH]c4ccccc34)[C@@H](c3ccc4c(c3)OCO4)N2C(=O)CN1[C@@H]1CCN(Cc2cccnc2)C1` showed an IC50 [1] of 2 nM.
Molecule `COC(=O)[C@@H]1Cc2c([nH]c3ccccc23)[C@@H](c2ccc(Cl)cc2)N1C(=O)CCl` has an IC50 [1] of 2700 nM.
Work on `COc1ccc2c3ccnc(C)c3n(CC3CC(c4ccccc4)=NO3)c2c1` (centres undefined) yielded an IC50 [2] of 11000 nM.
`O=C1C2Cc3c([nH]c4ccccc34)C(c3ccc4c(c3)OCO4)N2C(=O)CN1Cc1ccccc1` (centres undefined) showed an IC50 [1] of 3 nM.
`O=c1c2cc(NS(=O)(=O)c3ccccc3OC(F)(F)F)ccc2cc2n1CCc1c-2[nH]c2ccccc12` gave an IC50 [9] of 3600 nM.
In the case of `COc1ccc2c3c([nH]c2c1N)C(C)NCC3` (centres undefined), the IC50 [2] is reported as 2000 nM.
Work on `N#Cc1cc2c(cn1)[nH]c1ccccc12` yielded an IC50 [7] of 3 nM.
`O=C1C2Cc3c([nH]c4ccccc34)C(c3ccc4c(c3)OCO4)N2C(=O)CN1C1CCCCC1` (centres undefined) was tested, and the IC50 [1] was 3 nM.
